Patent US10722496B2, “2-iminobiotin for use in the treatment of brain cell injury” (Neurophyxia B.V., priority 2015, dated 2020)
Where “and” joins values, the source holds several entries; their conditions need not be identical. Identical values can stand only once.

Experiments:
[1] = Dose prediction simulations from covariate PK models; parameters: species or system human; Sim. AUCinf when dosing based on Crea0 from Table 6 / Sim. AUCinf when dosing based on eGFR: unit not given here
Experimental: Models were generated in order to determine the impact of dose adjustments and variability of AUC.
[…] and can be easily derived. (D=dose; CL=clearance)
An exploratory covariate analysis was performed looking at body weight, age, eGFR, SeCre, and Core temperature. The model used was as follows:
Dose correction for use at lower temperatures can be determined using the following equation: […]

[2] = tested on: stat5; experiment: Western blotting, stat5 phosphorylation; format: cell-based, human; details: 30 ng/ml 2-IB
Experimental: In vitro hypoxia was induced in the cell cultures by using our recently described system with minor modifications (Huang et al., 2013b; Weber et al., 2015; Zitta et al., 2010). Enzyme stock solutions (100×) of catalase and glucose oxidase (both from Sigma-Aldrich) were prepared in cell culture medium (DMEM/F12, 1% FCS; final concentration: 120 U/ml and 2 U/ml respectively; Sigma-Aldrich) leading to a decrease of partial pressure of oxygen (pO2) below 10 mmHg within 5 minutes. Hypoxic conditions were confirmed by using a tissue oxygen pressure monitor (LICOX® CMP Oxygen Catheter; Integra, Plainsboro, USA). After 7 hours of hypoxia, the cells were washed twice with PBS (PAA) and fresh normoxic medium supplemented with solvent (citrate buffer 1%) or 2-IB (10, 30, 50, 100 and 300 ng/mL) was added to the cells. […]
Protein extraction was performed using RIPA buffer containing 150 mM sodium chloride, 1% NP-40, 1% sodium deoxycholate, 0.1% sodium dodecyl sulfate (SDS) and 50 mM Tris-HCl buffer (pH 7.6; all from Sigma-Aldrich) or alternatively M-PER buffer (Mammalian Protein Extraction Reagent; Pierce, Ill., USA). Protein concentrations were determined with Roti®-Quant assays (Carl Roth) and samples were stored at −20° C. until use. […] Images were taken and densitometrically analyzed with the software ImageJ (v1.41o, NIH).

[3] = tested on: piglet model of perinatal global hypoxia-ischemia (HI); details: Peeters-Scholte et al., 2002; cited from earlier work
[4] = tested on: cell stress associated proteins; experiment: Cell stress proteome profiler array; format: cell-based, human; details: for ADAMTS1 mean densitometric intensity / Bcl-2 mean densitometric intensity / CA IX mean densitometric intensity / COX-2 mean densitometric intensity / Cited 2 mean densitometric intensity / Cytochrome C mean densitometric intensity / Dkk-4 mean densitometric intensity / FABP-1 mean densitometric intensity / HIF1a mean densitometric intensity / HIF2a mean densitometric intensity / HSP60 mean densitometric intensity / HSP70 mean densitometric intensity / IDO mean densitometric intensity / NFkB1 mean densitometric intensity / PON1 mean densitometric intensity / PON2 mean densitometric intensity / PON3 mean densitometric intensity / PP53 mean densitometric intensity / SIRT2 mean densitometric intensity / SOD2 mean densitometric intensity / Thioredoxin-1 mean densitometric intensity / p21/CIP1 mean densitometric intensity / p27 mean densitometric intensity / pHSP-27 mean densitometric intensity / pJNK mean densitometric intensity / pp38a mean densitometric intensity: 2-IB (30 ng/ml)
Experimental: In vitro hypoxia was induced in the cell cultures by using our recently described system with minor modifications (Huang et al., 2013b; Weber et al., 2015; Zitta et al., 2010). Enzyme stock solutions (100×) of catalase and glucose oxidase (both from Sigma-Aldrich) were prepared in cell culture medium (DMEM/F12, 1% FCS; final concentration: 120 U/ml and 2 U/ml respectively; Sigma-Aldrich) leading to a decrease of partial pressure of oxygen (pO2) below 10 mmHg within 5 minutes. Hypoxic conditions were confirmed by using a tissue oxygen pressure monitor (LICOX® CMP Oxygen Catheter; Integra, Plainsboro, USA). After 7 hours of hypoxia, the cells were washed twice with PBS (PAA) and fresh normoxic medium supplemented with solvent (citrate buffer 1%) or 2-IB (10, 30, 50, 100 and 300 ng/mL) was added to the cells. Investigations of cell damage, metabolic activity, ROS, hydrogen peroxide, nitrite/nitrate production, erkl/2, akt and stat5 phosphorylation as well as cell stress protein expression were performed with cell culture media or cell protein (FIG. 1).
Proteome profiling was performed using commercially available cell stress proteome profiler arrays (R&D Systems, Minneapolis, USA) and the manufacturer's protocol provided with the assay kit. Equal amounts (50 μg) of protein from each experiment (N=4) were pooled and applied to the respective array membrane. Expression levels of 26 cell stress associated proteins were evaluated by densitometric analyses of the arrays using the ImageJ 1.410 software (ImageJ, NIH, USA).

[5] = 30 ng/ml 2-IB after the hypoxic insult, of 26 proteins

## N=C1N[C@H]2[C@H](CS[C@H]2CCCCC(=O)O)N1 [2-IB, 2-iminobiotin]
[1]; Table 8, covariate model with Crea0, individual patient (ID 1-8)
  Sim. AUCinf when dosing based on 4.8 mg for all: 220 and 292 and 765 and 847 and 642 and 993 and 427 and 266
[1]; Table 8, individual patient (ID 1-8)
  Sim. AUCinf when dosing based on Crea0 from Table 6: 676 and 494 and 588 and 781 and 692 and 1070 and 722 and 327
[1]; Table 10, covariate model with eGFR, individual patient (ID 1-8)
  Sim. AUCinf when dosing based on 4.8 mg for all: 306 and 302 and 814 and 873 and 484 and 856 and 472 and 269
[1]; Table 10, Max of 8 patients
  Sim. AUCinf when dosing based on 4.8 mg for all: 873
  Sim. AUCinf when dosing based on eGFR: 922
[1]; Table 10, Mean of 8 patients
  Sim. AUCinf when dosing based on 4.8 mg for all: 547
  Sim. AUCinf when dosing based on eGFR: 679
[1]; Table 10, Median of 8 patients
  Sim. AUCinf when dosing based on 4.8 mg for all: 478
  Sim. AUCinf when dosing based on eGFR: 713
[1]; Table 10, Min of 8 patients
  Sim. AUCinf when dosing based on 4.8 mg for all: 269
  Sim. AUCinf when dosing based on eGFR: 415
[1]; Table 10, individual patient (ID 1-8)
  Sim. AUCinf when dosing based on eGFR: 802 and 465 and 626 and 806 and 596 and 922 and 800 and 415
[1]; given the same Crea0, temperature correction equation
  CL at 33° relative to the CL at 36°: 37%
[2]
  phosphorylation of stat5: did not influence
[3]
  neurological damage: reduces the amount of neurological damage
[4]; [5]
  cell stress associated proteins down regulated after hypoxia: 3/26
  cell stress associated proteins unchanged after hypoxia: 4/26
  cell stress associated proteins up regulated after hypoxia: 19/26
[4]; 30 ng/ml 2-IB for 4 hours post hypoxia
  investigated stress proteins up regulated: 73%
[4]; Hypoxia
  ADAMTS1 mean densitometric intensity: 9.23
  Bcl-2 mean densitometric intensity: 42.62
  CA IX mean densitometric intensity: 23.02
  COX-2 mean densitometric intensity: 13.79
  Cited 2 mean densitometric intensity: 67.91
  Cytochrome C mean densitometric intensity: 108.04
  Dkk-4 mean densitometric intensity: 3.47
  FABP-1 mean densitometric intensity: 9.02
  HIF1a mean densitometric intensity: 47.93
  HIF2a mean densitometric intensity: 0.00
  HSP60 mean densitometric intensity: 150.57
  HSP70 mean densitometric intensity: 170.82
  IDO mean densitometric intensity: 0.00
  NFkB1 mean densitometric intensity: 8.63
  PON1 mean densitometric intensity: 0.00
  PON2 mean densitometric intensity: 20.16
  PON3 mean densitometric intensity: 0.00
  PP53 mean densitometric intensity: 11.92
  SIRT2 mean densitometric intensity: 171.53
  SOD2 mean densitometric intensity: 203.11
  Thioredoxin-1 mean densitometric intensity: 147.57
  p21/CIP1 mean densitometric intensity: 51.41
  p27 mean densitometric intensity: 4.67
  pHSP-27 mean densitometric intensity: 1.65
  pJNK mean densitometric intensity: 48.63
  pp38a mean densitometric intensity: 3.52
[4]; Normoxia
  ADAMTS1 mean densitometric intensity: 10.32
  Bcl-2 mean densitometric intensity: 32.27
  CA IX mean densitometric intensity: 0.00
  COX-2 mean densitometric intensity: 8.91
  Cited 2 mean densitometric intensity: 44.07
  Cytochrome C mean densitometric intensity: 84.87
  Dkk-4 mean densitometric intensity: 2.81
  FABP-1 mean densitometric intensity: 6.67
  HIF1a mean densitometric intensity: 62.15
  HIF2a mean densitometric intensity: 0.00
  HSP60 mean densitometric intensity: 121.73
  HSP70 mean densitometric intensity: 139.78
  IDO mean densitometric intensity: 0.00
  NFkB1 mean densitometric intensity: 6.09
  PON1 mean densitometric intensity: 0.00
  PON2 mean densitometric intensity: 8.83
  PON3 mean densitometric intensity: 0.00
  PP53 mean densitometric intensity: 8.64
  SIRT2 mean densitometric intensity: 148.80
  SOD2 mean densitometric intensity: 181.53
  Thioredoxin-1 mean densitometric intensity: 126.34
  p21/CIP1 mean densitometric intensity: 43.13
  p27 mean densitometric intensity: 4.51
  pHSP-27 mean densitometric intensity: 0.79
  pJNK mean densitometric intensity: 39.24
  pp38a mean densitometric intensity: 4.72
